Reference: US8609686B2, “Substituted azabicyclic compounds and the use thereof” (Bayer Intellectual Property GmbH, priority 2007, dated 2013)

Experiments:
Type in all cases: cell-based
adenosine A2a receptor = target: T1, adenosine A2a receptor (Homo sapiens, UniProt P29274); test: Indirect determination of adenosine agonism by way of gene expression (cAMP-dependent luciferase reporter), A2a cells; conditions: stably transfected CHO cells; 50% of the maximum stimulation of luciferase
T1 construct: expressed in transfected cells; host or cells: CHO (Chinese Hamster Ovary)
T1 sequence (P29274 whole entry): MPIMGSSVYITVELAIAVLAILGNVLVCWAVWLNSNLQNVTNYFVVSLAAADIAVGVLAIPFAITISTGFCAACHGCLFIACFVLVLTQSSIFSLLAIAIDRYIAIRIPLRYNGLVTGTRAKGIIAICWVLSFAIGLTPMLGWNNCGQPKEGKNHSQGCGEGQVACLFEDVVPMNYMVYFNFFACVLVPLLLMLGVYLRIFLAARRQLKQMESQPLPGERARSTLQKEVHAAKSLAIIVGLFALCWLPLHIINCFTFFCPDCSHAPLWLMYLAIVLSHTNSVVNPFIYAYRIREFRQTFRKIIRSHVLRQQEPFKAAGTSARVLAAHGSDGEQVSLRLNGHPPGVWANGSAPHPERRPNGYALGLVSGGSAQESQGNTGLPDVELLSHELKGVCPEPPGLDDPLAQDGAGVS
Description: (§1) B-1. Indirect determination of the adenosine agonism by way of gene expression Cells of the CHO (Chinese Hamster Ovary) permanent line are transfected stably with the cDNA for the adenosine receptor subtypes A1, A2a and A2b. The adenosine A1 receptors are coupled to the adenylate cyclase by way of Gi proteins, while the adenosine A2a and A2b receptors are coupled by way of Gs proteins. In correspondence with this, the formation of cAMP in the cell is inhibited or stimulated, respectively. After that, expression of the luciferase is modulated by way of a cAMP-dependent promoter. The luciferase test is optimized, with the aim of high sensitivity and reproducibility, low variance and good suitability for implementation on a robot system, by varying several test parameters, such as cell density, duration of the growth phase and the test incubation, forskolin concentration and medium composition. The following test protocol is used for pharmacologically characterizing cells and for the robot-assisted substance screening:
(§2) The stock cultures are grown, at 37° C. and under 5% CO2, in DMEM/F12 medium containing 10% FCS (fetal calf serum) and in each case split 1:10 after 2-3 days. Test cultures are seeded in 384-well plates with 2000 cells per well and grown at 37° C. for approx. 48 hours. The medium is then replaced with a physiological sodium chloride solution (130 mM sodium chloride, 5 mM potassium chloride, 2 mM calcium chloride, 20 mM HEPES, 1 mM magnesium chloride hexahydrate, 5 mM sodium bicarbonate, pH 7.4). The substances to be tested, which are dissolved in DMSO, are pipetted into the test cultures (maximum final concentration of DMSO in the test mixture: 0.5%) in a dilution series of from 5×10^−11M to 3×10^−6M (final concentration). 10 minutes later, forskolin is added to the A1 cells and all the cultures are subsequently incubated at 37° C. for four hours. After that, 35 μl of a solution which is composed of 50% lysis reagent (30 mM disodium hydrogenphosphate, 10% glycerol, 3% TritonX100, 25 mM TrisHCl, 2 mM dithiotreitol (DTT), pH 7.8) and 50% luciferase substrate solution (2.5 mM ATP, 0.5 mM luciferin, 0.1 mM coenzyme A, 10 mM tricine, 1.35 mM magnesium sulfate, 15 mM DTT, pH 7.8) are added to the test cultures, which are shaken for approx. 1 minute and the luciferase activity is measured using a camera system. The EC50 values are determined, i.e., the concentrations at which 50% of the luciferase response is inhibited in the case of the A1 cell, and, respectively, 50% of the maximum stimulation with the corresponding substance is achieved in the case of the A2b and A2a cells. […] Pharmacol., 357, 1-9 (1998)).
(§3) Table 1 below lists the EC50 values of representative working examples for the receptor stimulation on adenosine A1, A2a and A2b receptor subtypes: […]

adenosine A1 receptor = target: T2, adenosine A1 receptor (Homo sapiens, UniProt P30542); test: Indirect determination of adenosine agonism by way of gene expression (cAMP-dependent luciferase reporter), A1 cells; conditions: stably transfected CHO cells; 1 μM forskolin; concentration at which 50% of the luciferase response is inhibited
T2 construct: expressed in transfected cells; host or cells: CHO (Chinese Hamster Ovary)
T2 sequence (P30542 1-326): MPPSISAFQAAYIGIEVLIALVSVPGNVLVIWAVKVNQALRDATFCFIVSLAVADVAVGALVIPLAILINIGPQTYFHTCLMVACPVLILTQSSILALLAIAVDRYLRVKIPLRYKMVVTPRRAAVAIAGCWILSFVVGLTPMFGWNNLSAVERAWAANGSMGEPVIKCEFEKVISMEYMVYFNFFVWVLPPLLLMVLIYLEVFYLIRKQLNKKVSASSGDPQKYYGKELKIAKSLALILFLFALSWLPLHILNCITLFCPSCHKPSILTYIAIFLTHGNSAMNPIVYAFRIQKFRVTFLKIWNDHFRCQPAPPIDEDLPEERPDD
Description: as §1, §2, §3

adenosine A2b receptor = target: T3, adenosine A2b receptor (Homo sapiens, UniProt P29275); test: Indirect determination of adenosine agonism by way of gene expression (cAMP-dependent luciferase reporter), A2b cells; conditions: stably transfected CHO cells; 50% of the maximum stimulation of luciferase
T3 construct: expressed in transfected cells; host or cells: CHO (Chinese Hamster Ovary)
T3 sequence (P29275 1-332): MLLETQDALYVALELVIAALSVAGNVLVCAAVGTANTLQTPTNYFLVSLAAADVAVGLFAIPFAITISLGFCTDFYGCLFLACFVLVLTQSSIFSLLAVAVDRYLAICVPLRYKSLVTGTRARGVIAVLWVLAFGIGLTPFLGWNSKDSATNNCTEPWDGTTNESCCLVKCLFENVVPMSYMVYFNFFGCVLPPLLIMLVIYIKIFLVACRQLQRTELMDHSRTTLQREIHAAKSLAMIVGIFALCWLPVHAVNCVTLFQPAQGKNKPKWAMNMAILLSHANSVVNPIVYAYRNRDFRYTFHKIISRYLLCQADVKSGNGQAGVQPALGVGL
Description: as §1, §2, §3

| SMILES | EC50 (adenosine A2a receptor) [nM] | EC50 (adenosine A1 receptor) [nM] | EC50 (adenosine A2b receptor) [nM] |
| --- | --- | --- | --- |
| COC(=O)c1c(N)c2c(-c3ccc(OCCO)cc3)c(C#N)c(SCc3csc(-c4ccc(Cl)cc4)n3)nc2n1C [Example 1, Methyl 3-amino-6-({[2-(4-chlorophenyl)-1,3-thiazol-4-yl]methyl}thio)-5-cyano-4-[4-(2-hydroxyethoxy)phenyl]-1-methyl-1H-pyrrolo[2,3-b]pyridine-2-carboxylate] | 170 | 0.8 | 550 |
| COC(=O)Cn1c(C(=O)OC)c(N)c2c(-c3ccc(OCCO)cc3)c(C#N)c(SCc3csc(-c4ccc(Cl)cc4)n3)nc21 [Example 2] | 150 | 1.7 | 1540 |
| COC(=O)c1c(N)c2c(-c3ccccc3)c(C#N)c(SCc3csc(-c4ccc(Cl)cc4)n3)nc2n1C [Example 3] | > 3000 | 5.3 | > 3000 |
| COC(=O)c1c(N)c2c(-c3ccc(OCCO)cc3)c(C#N)c(SCc3cccc(C#N)c3)nc2n1C [Example 4] | 73 | 3 | 320 |
| COC(=O)c1c(N)c2c(-c3ccc(OCCO)cc3)c(C#N)c(SCc3ccc(OC)nc3)nc2n1C [Example 5] | 200 | 1.5 | 1000 |
| Cn1c(C(N)=O)c(N)c2c(-c3ccc(OCCO)cc3)c(C#N)c(SCc3csc(-c4ccc(Cl)cc4)n3)nc21 [Example 6] | 1120 | 0.3 | > 3000 |
| CNC(=O)c1c(N)c2c(-c3ccc(OCCO)cc3)c(C#N)c(SCc3csc(-c4ccc(Cl)cc4)n3)nc2n1C [Example 7] | 350 | 5 | 660 |
| COC(=O)c1c(N)c2c(-c3ccc(OC[C@@H](O)CO)cc3)c(C#N)c(SCc3coc(-c4ccc(Cl)cc4)n3)nc2n1C [Example 11] | 600 | 14 | > 3000 |

The remaining lines, values ahead:

| EC50 (adenosine A2a receptor) [nM] | EC50 (adenosine A1 receptor) [nM] | EC50 (adenosine A2b receptor) [nM] | SMILES |
| --- | --- | --- | --- |
| 1600 | 11 | > 3000 | COC(=O)c1c(N)c2c(-c3ccc(OC[C@@H](O)CO)cc3)c(C#N)c(SCc3csc(-c4ccc(Cl)cc4)n3)nc2n1C [Example 12] |
| 440 | 3.7 | 1330 | COC(=O)c1c(N)c2c(-c3ccc(OCCO)cc3)c(C#N)c(SCc3cccc(C(N)=O)c3)nc2n1C [Example 15, Methyl 3-amino-6-[(3-carbamoylbenzyl)thio]-5-cyano-4-[4-(2-hydroxyethoxy)phenyl]-1-methyl-1H-pyrrolo[2,3-b]pyridine-2-carboxylate] |
| 330 | 4.9 | 760 | Cn1c(C(N)=O)c(N)c2c(-c3ccc(OCCO)cc3)c(C#N)c(SCc3cccc(C(N)=O)c3)nc21 [Example 16, 3-Amino-6-[(3-carbamoylbenzyl)thio]-5-cyano-4-[4-(2-hydroxyethoxy)phenyl]-1-methyl-1H-pyrrolo[2,3-b]pyridine-2-carboxamide] |
| 680 | 3.7 | > 3000 | COC(=O)c1[nH]c2nc(SCc3csc(-c4ccc(Cl)cc4)n3)c(C#N)c(-c3ccc(OCCO)cc3)c2c1N [Example 17, Methyl 3-amino-6-({[2-(4-chlorophenyl)-1,3-thiazol-4-yl]methyl}thio)-5-cyano-4-[4-(2-hydroxyethoxy)phenyl]-1H-pyrrolo[2,3-b]pyridine-2-carboxylate] |
| > 3000 | 10 | > 3000 | N#Cc1c(SCc2csc(-c3ccc(Cl)cc3)n2)nc2[nH]nc(N)c2c1-c1ccc(OCCO)cc1 [Example 21, 3-Amino-6-({[2-(4-chlorophenyl)-1,3-thiazol-4-yl]methyl}sulfanyl)-4-[4-(2-hydroxyethoxy)phenyl]-1H-pyrazolo[3,4-b]pyridine-5-carbonitrile] |
